# In patent publication US6562782B1, “Oligocycloalkanoid compounds and methods of use” (University of Rochester, priority 1999, dated 2003):
# Assay: UV titration of ter-cyclopentane tetra-amino acid derivatives with lipid A
# Assay type: binding, Salmonella minnesota
# Settings: for binding to lipid A in UV titration, in words: aqueous solution, concentrations below the cmc of lipid A / >20 micromolar in lipid A
# Method: A 600 microliter, 0.9 μM solution of the ter-cyclopentane tetra-amino acid derivative in water (pH=5.0) or phosphate-buffered saline (PBS, pH=7.4) was allowed to equilibrate in a 1.0-ml masked wall UV cell at ambient temperature (22° C.), in a Shimadzu 1600-PC UV spectrophotometer. […] After each addition, the solution was allowed to equilibrate for a minimum of 5 minutes, then scanned for absorbance 550-220 nm.
Compound,"binding to lipid A in UV titration, in words",lipid A binding affinity compared with polymyxins
"NCC(=O)OCC1CC(COC(=O)CN)C(C2CCC(C3C(COC(=O)CN)CC(COC(=O)CN)C3COC(=O)c3ccccc3)C2)C1COC(=O)c1ccccc1 (stereo not shown) [Compound 7.1, tetra-glycinate ter-cyclopentane]",saturation point for binding of lipid A to 7.1 was not reached,
"NC(Cc1c[nH]c2ccccc12)C(=O)OCC1CC(COC(=O)C(N)Cc2c[nH]c3ccccc23)C(C2CCC(C3C(COC(=O)C(N)Cc4c[nH]c5ccccc45)CC(COC(=O)C(N)Cc4c[nH]c5ccccc45)C3COC(=O)c3ccccc3)C2)C1COC(=O)c1ccccc1 (mixture of isomers) [Compound 7.3, tetra-tryptophaninate ter-cyclopentane]",,greater than the binding affinity of polymyxins
"COC(=O)[C@@H](N)Cc1c[nH]c2ccccc12 [Compound H2N-Trp-OCH3, tryptophan methyl-ester, reference compound]",not saturatable at the concentrations tested,
tetra-phenylalaninate ter-cyclopentane [Compound 7.2],reasonable affinity,
